From ChEMBL document CHEMBL1130440, “N-Methyl-2-[4-(2-methylpropyl)phenyl]-3-(3-methoxy-5-methylpyrazin-2-ylsulfamoyl)benzamide; one of a class of novel benzenesulphonamides which are orally-active, ETA-selective endothelin antagonists” (Bioorg Med Chem Lett, 1997)

Key:
[1] = test system: Rattus norvegicus; assay: In vivo mean dose ratio (MDR) activity against the pressor response induced by big ET-1 in alderley park rats at 1 hr after (1 mg/kg) oral administration; format: functional
[2] = target: T1, Endothelin-1 receptor (Homo sapiens, UniProt P25101); assay: In vitro binding was measured by the displacement of [125I]ET1 from membranes prepared from MEL cells transfected with cloned human ETA receptors; format: cell membranes
T1 sequence (P25101 whole entry): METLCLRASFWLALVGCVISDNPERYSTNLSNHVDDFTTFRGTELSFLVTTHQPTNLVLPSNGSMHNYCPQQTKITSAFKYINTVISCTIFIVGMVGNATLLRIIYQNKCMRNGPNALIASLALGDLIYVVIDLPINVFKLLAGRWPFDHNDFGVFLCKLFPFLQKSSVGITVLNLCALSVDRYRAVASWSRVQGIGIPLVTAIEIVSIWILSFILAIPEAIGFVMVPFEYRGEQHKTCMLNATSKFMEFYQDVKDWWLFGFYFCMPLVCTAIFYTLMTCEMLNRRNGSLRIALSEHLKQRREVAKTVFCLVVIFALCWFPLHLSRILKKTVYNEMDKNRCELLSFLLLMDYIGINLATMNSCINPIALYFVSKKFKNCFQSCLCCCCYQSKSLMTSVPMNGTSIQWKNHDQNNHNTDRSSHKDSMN

[3] = test system: Rattus norvegicus; assay: In vivo mean dose ratio(MDR) activity against the pressor response induced by big ET-1 in alderley park rats at 30 min after (2.5 mg/kg) oral administration; format: functional
[4] = test system: Rattus norvegicus; assay: In vivo mean dose ratio(MDR) activity against the pressor response induced by big ET-1 in alderley park rats at 2 hr after (2.5 mg/kg) oral administration; format: functional
[5] = test system: Rattus norvegicus; assay: In vivo mean dose ratio(MDR) activity against the pressor response induced by big ET-1 in alderley park rats at 4 hr after (2.5 mg/kg) oral administration; format: functional

IC50 [2] [nM] | Structure (SMILES) | MDR [1] | further results
0.501 | COCCNC(=O)c1cccc(S(=O)(=O)Nc2ncc(C)nc2OC)c1-c1ccc(CC(C)C)cc1 | 3.2 | 
31.6 | COc1nc(Br)cnc1NS(=O)(=O)c1ccccc1-c1ccccc1 |  | 
1 | COc1nc(C)cnc1NS(=O)(=O)c1cccc(C(N)=O)c1-c1ccc(CC(C)C)cc1 | 2.4 | 
1 | COc1nc(Br)cnc1NS(=O)(=O)c1cccc(C(=O)N(C)C)c1-c1ccc(CC(C)C)cc1 |  | 
39.8 | COc1nc(Br)cnc1NS(=O)(=O)c1ccccc1-c1ccc(CC(C)C)cc1 |  | 
2.51 | COc1nc(C)cnc1NS(=O)(=O)c1cccc(C(=O)N(C)C)c1-c1ccc(CC(C)C)cc1 | 1.6 | 
0.631 | COc1nc(C)cnc1NS(=O)(=O)c1cccc(C(=O)NCCO)c1-c1ccc(CC(C)C)cc1 | 4.2 | 
1.58 | COCCNC(=O)c1cccc(S(=O)(=O)Nc2ncc(Br)nc2OC)c1-c1ccc(CC(C)C)cc1 | 2.1 | 
39.8 | CNC(=O)c1cccc(S(=O)(=O)Nc2ncc(Br)nc2OC)c1-c1ccccc1 |  | 
0.794 | COc1nc(Br)cnc1NS(=O)(=O)c1cccc(C(N)=O)c1-c1ccc(CC(C)C)cc1 |  | 
0.501 | CNC(=O)c1cccc(S(=O)(=O)Nc2ncc(C)nc2OC)c1-c1ccc(CC(C)C)cc1 | 3.2 | Oral activity [3]: 6.2; Oral activity [4]: 3.3; Oral activity [5]: 4
3.98 | CCCCCNC(=O)c1cccc(S(=O)(=O)Nc2ncc(Br)nc2OC)c1-c1ccccc1 |  | 
39.8 | COc1nc(Br)cnc1NS(=O)(=O)c1cccc(C(N)=O)c1-c1ccccc1 |  | 
1.26 | CNC(=O)c1cccc(S(=O)(=O)Nc2ncc(Br)nc2OC)c1-c1ccc(CC(C)C)cc1 | 2.7 | 
200 | CCCCCNC(=O)c1cccc(S(=O)(=O)Nc2ncc(Br)nc2OC)c1-c1ccc(CC(C)C)cc1 |  | 
